Patent publication US11103603B2, “18F-labeled compounds for PET imaging and uses thereof” (The University of North Carolina at Chapel Hill, priority 2016, dated 2021)

How the values were obtained:
[1] = molecular target: IDO1 enzyme (Homo sapiens, UniProt P14902); assay: IDO1 enzyme assay (substrate test, absorbance at 490 nm); format: biochemical; conditions: for substrate to IDO1 enzyme: FIG. 7A; for absorbance at 490 nm: reaction containing the compound, results from 3 independent assays, control reaction had no absorbance
Protocol: (§1) (D) Decay-corrected whole-body small PET images of B16F10 melanoma after 30 min injection of 5-[^18]F-AMT.
(§2) Among the agents synthesized, 5-[^18F]F-AMT was first evaluated in vitro. In order to ensure that 5-[^18F]F-AMT could be used for IDO imaging, cell- and enzyme-based assays were performed. It was first tested whether 5-[^18F]F-AMT is a substrate for the IDO enzyme, and the result compared with that of the natural substrate Trp and a known IDO agent, α-methyl-L-tryptophan (AMT). […] Therefore, a cell-based assay was performed to further evaluate the agents. The uptake of 5-[^18F]F-AMT in IFNγ-treated cells was 3.474±0.6451% compared with 0.50±0.28% in control cells after 1 h incubation (p<0.001) (FIG. 7C). […] The serotonin pathway is a competitive metabolic route for Trp and its derivatives. In the first step Tph adds a hydroxyl group to position 5 of the indole ring. It was evaluated whether the introduction of fluorine at the 5-position would affect metabolism by Tph. As shown in) (FIG. 7B), immediately after adding L-Trp to the reaction system containing the tryptophan hydroxylase enzyme, the fluorescence signal increased from a baseline value of −0.266 to 40.885 and reached a peak value 58.350 at 26 min. Immediately after adding AMT to the reaction system, the fluorescence signal increased from a baseline value of −0.312 to 21.145 and reached a peak value of 36.607 at 34 min.

[2] = test system: tryptophan hydroxylase enzyme; assay: Protein based tryptophan hydroxylase (Tph) assay, fluorescence signal; format: biochemical; conditions: for fluorescence signal immediately after adding compound: immediately after adding to reaction system containing tryptophan hydroxylase; for fluorescence signal peak value: peak of time course; for substrate quality for Tph: compared with Trp and AMT
Protocol: as §2

[3] = test system: HeLa cells; assay: Cell uptake of tracer in HeLa cells with or without IFNγ treatment and NLG919; format: cell-based
Protocol: as §1, §2

[4] = test system: B16F10 melanoma; assay: Small animal PET imaging of B16F10 melanoma tumor xenograft mouse model; format: in vivo; conditions: 200 μCi injected, image at 30 min
Protocol: as §1
FIGS. 8A-8B show (A) decay-corrected whole-body small PET images of B16F10 melanoma 0.5 h, 1.4 h, and 20 h after injection of ^124I-AMT; (B) decay-corrected whole-body small PET images of B16F10 melanoma 50 min after injection of ^18F—N-Me-Trp.
A tumor xenograft mouse model was produced with a B16F10 melanoma. 200 μCi of 5-^18F-AMT was injected and a PET image was obtained at 30 min. (FIG. 7D).
To test the effectiveness of therapeutic compounds of the invention, a tumor […] xenograft mouse model was produced with a B16F10 melanoma. 1 (FIG. 8A) or ^18F—N-Me-Trp (FIG. 8B) were injected in the tail vein and PET images obtained.

Sequence of IDO1 enzyme (P14902 whole entry, species assumed): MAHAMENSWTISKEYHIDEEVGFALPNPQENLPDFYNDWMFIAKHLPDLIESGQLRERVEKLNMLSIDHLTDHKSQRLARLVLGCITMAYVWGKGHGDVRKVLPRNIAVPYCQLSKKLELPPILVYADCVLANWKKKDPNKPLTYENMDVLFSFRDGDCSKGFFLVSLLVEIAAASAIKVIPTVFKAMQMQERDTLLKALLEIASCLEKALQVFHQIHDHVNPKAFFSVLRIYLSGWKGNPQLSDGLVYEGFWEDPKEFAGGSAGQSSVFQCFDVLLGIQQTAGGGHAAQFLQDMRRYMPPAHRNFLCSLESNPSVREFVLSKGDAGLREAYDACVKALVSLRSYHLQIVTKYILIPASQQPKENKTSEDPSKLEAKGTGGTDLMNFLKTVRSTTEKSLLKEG

Compound | substrate to IDO1 enzyme [1] | absorbance at 490 nm [1] | time at which peak fluorescence was reached [2] | fluorescence signal immediately after adding compound [2] | fluorescence signal peak value [2] | substrate quality for Tph [2] | increase of HeLa cells uptake after IFN-γ treatment ([3]; HeLa cells, IFN-γ treated vs untreated) | uptake in IFNγ-treated cells incubated with NLG919 ([3]; IFNγ-treated cells + IDO1 inhibitor NLG919) | uptake in IFNγ-treated cells ([3]; IFNγ-treated cells, 1 h incubation) | uptake in control cells ([3]; control cells (no IFNγ), 1 h incubation) | PET image of tumor [4]
C[C@](N)(Cc1c[nH]c2ccccc12)C(=O)O [AMT, α-methyl-L-tryptophan] | substrates | 0.19±0.02 | 34 min | 21.145 | 36.607 | – | – | – | – | – | –
N[C@@H](Cc1c[nH]c2ccccc12)C(=O)O [L-Trp, L-tryptophan] | substrates | 0.21±0.01 | 26 min | 40.885 | 58.350 | – | – | – | – | – | –
CC(N)(Cc1c[nH]c2ccc(F)cc12)C(=O)O (stereo not shown) [5-F-AMT] | substrates | 0.16±0.03 | 25 min | 5.635 | 8.176 | not a good substrate | – | – | – | – | –
CC(N)(Cc1c[nH]c2ccc([18F])cc12)C(=O)O (stereo not shown) [5-[^18F]F-AMT] | – | – | – | – | – | worse substrate | 7 times | 0.88±0.12% | 3.474±0.6451% | 0.50±0.28% | clearly shows the tumor
